Assay results as given in patent US4122184A, “Benzimidazole insecticides” (priority 1977, dated 1978).

Assays:
house flies = settings: 1000 ppm; cited from earlier work
milkweed bugs = settings: 250 ppm; cited from earlier work
Southern armyworm larvae = settings: 250 ppm; cited from earlier work
boll weevils = settings: 250 ppm; cited from earlier work
oriental roaches = settings: 250 ppm; cited from earlier work
Asparagus Beetles Adults [1] = assay: Field trial, contact poison test; assay type: in vivo
Excerpt: (§1) Infested plants are placed in 6 oz. prescription bottles filled with water to keep them from wilting. Cellucotton is wrapped around the plant stem and squeezed into the bottle neck to prevent the insects from drowning.
(§2) A DeVilbiss Special Atomizer (5004) is used at 10 psi to spray the test plant with different concentrations of compounds. The atomizer is held at arm's length to prevent blowing the insects off the host plant. After treating, the bottles are placed on a table covered with brown wrapping paper to catch the dead insects as they drop from the plant. The plants are spaced so the leaves or plants are not touching one another.
(§3) The results are read at 24, 48, and 72 hours when applicable. The rating scale is 0 to 9 where 0 = 0-10 percent and 9 = 91-100 percent mortality.
(§4) Using the above methods, field trials were carried out against species of 5 orders of insects. The results, which are summarized in the following tables, give the average mortality for the particular insect with a given benzimidazole for each concentration employed. […] These tables contain all results obtained during the summer trials.

[2] = tested on: Potato Flea Beetle Adults; assay: Field trial, contact poison test; assay type: in vivo
Excerpt: as §1, §2, §3, §4

Yellow Mealworm Larvae = assay: Field trial, topical application; assay type: in vivo; set-up: key: 0 = 0-10% mortality, 9 = 91-100% mortality (0-9 scale)
Description: as §3
(§5) In a variation of the above test, 1 microliter of a test solution containing a predetermined number of micrograms of benzimidazole was applied directly to larvae or adult insects.
as §4

Asparagus Beetles Adults [3] = assay: Field trial, stomach poison test; assay type: in vivo
Description: (§6) Leaves from the infested plant are treated with different concentrations of the test compounds, either by spraying with a DeVilbiss Special Atomizer (5004) at 10 psi or by dipping the leaves in solutions containing the compound. The leaves are then allowed to air dry.
(§7) After the leaves have dryed, they are placed in plastic petri dishes (100 × 25 mm), then the insects are counted out into each dish, five or ten insects per dish depending on the number of insects available. There are one or two replicates and usually two or three rates with each compound. Mortality results are taken at 24, 48 and 72 hours. The rating scale is 0 to 9.
as §4

[4] = tested on: Potato Flea Beetle Adults; assay: Field trial, stomach poison test; assay type: in vivo
Description: as §6, §7, §4

[5] = tested on: Unidentified Green Leafhopper; assay: Field trial, stomach poison test; assay type: in vivo; set-up: key: mortality rating on a 0 to 9 scale
Description: as §6, §7, §4

[6] = tested on: Tarnished Plant Bug Adults; assay: Field trial, stomach poison test; assay type: in vivo; set-up: key: mortality rating on a 0 to 9 scale
Description: as §6, §7, §4

Picnic Beetle [7] = assay: Field trial (first summer), topical; assay type: in vivo; settings: .078125 μg/μl
Description: as §5
(§8) During the previous summer similar field trials were conducted employing the same tests as heretofore but with some additional species of insects not included in the later tests. The results listed below are for tests in which an insect mortality was established by a given application route and at a given concentration in a particular test. The same 0 - 9 scoring system is used as is the designation of compounds by alphabetical symbols.

Mosquito Larvae = assay: Mosquito larvae test (dip test); assay type: in vivo, Aedes aegypti; settings: 48 h
Description: Aedes aegypti larvae 5 days old are allowed to feed on fresh food for at least 3 hours previous to being placed on test. Larvae are then removed from the rearing pans by pouring on a 20 mesh screen, washing with deionized water, and pooling in a 6-inch white enameled sauce pan.
Twenty larvae are placed in a 1 oz. paper cup containing 25 ml. of deionized water.
Test chemicals are dissolved in a suitable solvent and pipetted under the surface of 225 ml. of deionized water in one pint wide-mouthed Mason jar test containers and stirred. A cup containing 20 larvae in 25 ml. of water is then added. […]
Results are determined 48 hours later by counting the dead and moribund larvae. […] Moribund larvae are those that are capable of limited, or poorly coordinated, locomotion in a sluggish manner.
Live larvae respond normally and actively.

Picnic Beetle [8] = assay: Field trial (first summer), contact; assay type: in vivo; settings: 250 ppm
Excerpt: as §1, §2, §3, §8

Milkweed Beetle = assay: Field trial (first summer), contact; assay type: in vivo; settings: 125 ppm
Excerpt: as §1, §2, §3, §8

Picnic Beetle [9] = assay: Field trial (first summer), stomach; assay type: in vivo; settings: 250 ppm
Description: as §6, §7, §8

Two-spotted Spider Mite = Two-spotted Spider Mite test; assay type: in vivo, Tetranychus urticae (Acarina); settings: 48 h
Description: The procedure in this test is the same as that in the previous aphid test, except that about 100 two-spotted spider mites from a stock colony raised on squash plants are transferred to a cut squash cotyledon. The mortality is estimated 48 hours after spraying. The same rating scale is used.

Squash Bug Adults = assay: Field trial, contact poison test; assay type: in vivo; set-up: key: 0-9 rating: 0 = 0-10% mortality, 9 = 91-100% mortality
Excerpt: as §1, §2, §3, §4

Alfalfa Weevil Larvae [10] = assay: Field trial, contact poison test; assay type: in vivo
Excerpt: as §1, §2, §3, §4

[11] = tested on: Southern Corn Rootworm Adults; assay: Field trial, contact poison test; assay type: in vivo
Excerpt: as §1, §2, §3, §4

Milkweed Bug = Milkweed Bug Test; assay type: in vivo, Oncopeltis fasciatus (Hemiptera); settings: 100 ppm, 48 h
Description: Ten adult milkweed bugs are chilled and placed in a test cage. The cages containing the bugs are sprayed with 5 ml. of a test formulation containing a pre-determined amount of the insecticide, using a DeVilbiss atomizer at 10 psi held 33 inches from the top of the cage. After the cage has been allowed to dry, the bugs are fed and watered for 48 hours. A formulation containing 500 ppm of malathion is used as a reference standard and two unsprayed cages are kept as controls. Mortality counts are made 48 hours after spraying. Moribund adults are considered dead. The same rating scale is employed as before.

Boll Weevil [12] = assay: Field trial (first summer), topical; assay type: in vivo, Anthonomus grandis; settings: .078125 μg/μl
Description: as §5, §8

Alfalfa Weevil Larvae [13] = assay: Field trial, topical application; assay type: in vivo
Description: as §3, §5, §4

Boll Weevil [14] = assay: Boll Weevil Test; assay type: in vivo, Anthonomus grandis (Coleoptera); settings: 48 h
Excerpt: The procedure is identical to that employed for the Mexican bean beetle and the Southern armyworm, except that 10 adult boll weevils are placed on cotton leaves that have been dipped into formulations of the test compounds. The same rating scale is used.

Alfalfa Weevil Larvae [15] = assay: Field trial, stomach poison test; assay type: in vivo
Description: as §6, §7, §4

Meadow Spittlebug = assay: Field trial, stomach poison test; assay type: in vivo
Description: as §6, §7, §4

[16] = tested on: Striped Cucumber Beetle Adults; assay: Field trial, stomach poison test; assay type: in vivo; set-up: key: mortality rating on a 0 to 9 scale
Description: as §6, §7, §4

[17] = tested on: Southern Corn Rootworm Adults; assay: Field trial, stomach poison test; assay type: in vivo; set-up: key: mortality rating on a 0 to 9 scale
Description: as §6, §7, §4

Confused Flour Beetle = assay: Field trial (first summer), topical; assay type: in vivo; settings: .078125 μg/μl
Description: as §5, §8

Mexican Bean Beetle = assay: Field trial (first summer), topical; assay type: in vivo, Epilachna varivestis; settings: .25 μg/μl
Description: as §5, §8

FC(F)(F)c1nc2ccc(Cl)c(Cl)c2[nH]1 [2-trifluoromethyl-4,5-dichlorobenzimidazole]
insecticidal activity (house flies): excellent only at 1000 ppm
insecticidal activity (milkweed bugs): without action
insecticidal activity (Southern armyworm larvae): complete kill
insecticidal activity (boll weevils): without action
insecticidal activity (oriental roaches): without action

CCN(CC)C(=O)n1c(SC(F)(F)F)nc2c([N+](=O)[O-])cc(SC(F)(F)F)cc21 [S, n,n-diethyl-4-nitro-2,6-bis(trifluoromethyl)thio-1-benzimidazolecarboxamide]
average mortality rating (Asparagus Beetles Adults [1]; 10 ppm): 0 (0-10 percent)
average mortality rating (Asparagus Beetles Adults [1]; 25 ppm): 8
average mortality rating (Asparagus Beetles Adults [1]; 50 ppm): 5
average mortality rating ([2]; 10 ppm): 5
average mortality rating ([2]; 25 ppm): 8
average mortality rating ([2]; 50 ppm): 9 (91-100 percent mortality)
average mortality rating (Yellow Mealworm Larvae; 0.03 μg/μl): 2
average mortality rating (Yellow Mealworm Larvae; 0.07 μg/μl): 4
average mortality rating (Yellow Mealworm Larvae; 0.15 μg/μl): 4
average mortality rating (Asparagus Beetles Adults [3]; 5 ppm): 7
average mortality rating (Asparagus Beetles Adults [3]; 10 ppm): 7
average mortality rating (Asparagus Beetles Adults [3]; 25 ppm): 9 (91-100 percent mortality)
average mortality rating ([4]; 10 ppm): 3
average mortality rating ([4]; 25 ppm): 7
average mortality rating ([4]; 50 ppm): 9 (91-100 percent mortality)
average mortality rating ([5]; 10 ppm): 3
average mortality rating ([5]; 25 ppm): 0 (0-10 percent)
average mortality rating ([5]; 50 ppm): 0 (0-10 percent)
average mortality rating ([6]; 25 ppm): 5
insect mortality rating (Picnic Beetle [7]): 9 (91-100 percent mortality)
average mortality rating (Mosquito Larvae; 0.010 ppm): 4 (45-50%)
average mortality rating (Mosquito Larvae; 0.025 ppm): 5 (55-60%)
average mortality rating (Mosquito Larvae; 0.05 ppm): 5 (55-60%)
average mortality rating (Mosquito Larvae; 0.1 ppm): 9 (95-100%)
insect mortality rating (Picnic Beetle [8]): 9 (91-100 percent mortality)
insect mortality rating (Milkweed Beetle): 9 (91-100 percent mortality)
insect mortality rating (Picnic Beetle [9]): 9 (91-100 percent mortality)

O=[N+]([O-])c1cc(C(F)(F)F)cc2c1nc(C(F)(F)F)n2S(=O)(=O)c1ccccc1 [F, 2,6-bis(trifluoromethyl)-4-nitro-1-phenylsulfonylbenzimidazole]
mortality rating (Two-spotted Spider Mite; 1 ppm): 6.3
mortality rating (Two-spotted Spider Mite; 5 ppm): 7.5
mortality rating (Two-spotted Spider Mite; 10 ppm): 6.8
average mortality rating (Squash Bug Adults; 125 ppm): 0 (0-10 percent)
average mortality rating (Squash Bug Adults; 250 ppm): 4
average mortality rating (Squash Bug Adults; 500 ppm): 7
average mortality rating (Squash Bug Adults; 750 ppm): 9 (91-100 percent mortality)
average mortality rating (Alfalfa Weevil Larvae [10]; 500 ppm): 8
average mortality rating (Alfalfa Weevil Larvae [10]; 750 ppm): 8
average mortality rating (Alfalfa Weevil Larvae [10]; 1000 ppm): 8
average mortality rating ([2]; 10 ppm): 8
average mortality rating ([2]; 25 ppm): 8
average mortality rating ([2]; 50 ppm): 9 (91-100 percent mortality)
average mortality rating ([11]; 25 ppm): 2
average mortality rating ([11]; 50 ppm): 5
average mortality rating ([11]; 100 ppm): 9 (91-100 percent mortality)
average mortality rating (Yellow Mealworm Larvae; 0.03 μg/μl): 2
average mortality rating (Yellow Mealworm Larvae; 0.07 μg/μl): 3
average mortality rating (Yellow Mealworm Larvae; 0.15 μg/μl): 5
mortality rating (Milkweed Bug): 7.5
insect mortality rating (Boll Weevil [12]): 9 (91-100 percent mortality)
average mortality rating (Alfalfa Weevil Larvae [13]; 0.03 μg/μl): 1
average mortality rating (Alfalfa Weevil Larvae [13]; 0.07 μg/μl): 1
average mortality rating (Alfalfa Weevil Larvae [13]; 0.1 μg/μl): 3
mortality rating (Boll Weevil [14]; 25 ppm): 7.5
mortality rating (Boll Weevil [14]; 50 ppm): 6.5
mortality rating (Boll Weevil [14]; 250 ppm): 8.5
average mortality rating (Alfalfa Weevil Larvae [15]; 125 ppm): 1
average mortality rating (Alfalfa Weevil Larvae [15]; 250 ppm): 2
average mortality rating (Alfalfa Weevil Larvae [15]; 500 ppm): 7
average mortality rating ([4]; 10 ppm): 9 (91-100 percent mortality)
average mortality rating ([4]; 25 ppm): 9 (91-100 percent mortality)
average mortality rating ([4]; 50 ppm): 9 (91-100 percent mortality)
average mortality rating (Meadow Spittlebug; 10 ppm): 0 (0-10 percent)
average mortality rating (Meadow Spittlebug; 25 ppm): 1
average mortality rating (Meadow Spittlebug; 50 ppm): 7
average mortality rating ([5]; 10 ppm): 1
average mortality rating ([5]; 25 ppm): 1
average mortality rating ([5]; 50 ppm): 7
average mortality rating ([16]; 10 ppm): 0 (0-10 percent)
average mortality rating ([16]; 25 ppm): 3
average mortality rating ([16]; 50 ppm): 3
average mortality rating ([6]; 10 ppm): 4
average mortality rating ([6]; 25 ppm): 4
average mortality rating ([6]; 50 ppm): 2
average mortality rating ([17]; 25 ppm): 3
average mortality rating ([17]; 50 ppm): 4
average mortality rating ([17]; 100 ppm): 5
insect mortality rating (Confused Flour Beetle): 9 (91-100 percent mortality)
average mortality rating (Mosquito Larvae; 0.010 ppm): 8 (85-90%)
average mortality rating (Mosquito Larvae; 0.025 ppm): 5 (55-60%)
average mortality rating (Mosquito Larvae; 0.05 ppm): 8 (85-90%)
average mortality rating (Mosquito Larvae; 0.1 ppm): 9 (95-100%)
insect mortality rating (Mexican Bean Beetle): 9 (91-100 percent mortality)
